Legend:
Type in all cases: in vitro ADME
GST = GST activity in human liver subcellular fraction; conditions: 100 µM sesquiterpene, control 223 ± 19
Description: (§1) Enzyme activities were assayed in human and rat liver cytosolic and microsomal fractions. The enzyme assays (each performed in 4–8 replicates) were repeated three times (HPLC measurement of CYP activities was repeated only twice, Table 3). Inhibition studies were carried out by incubation of specific substrates in the presence of sesquiterpenes (in the range 0–100 µM).
(§2) The assays of all other enzymes were based on spectrophotometric detection of product formed or detection of decreasing substrate/cofactor levels using microplate reader Tecan Infinite M200 in cytosolic or microsomal fractions. Enzyme activities were determined using slight modifications of previously-published methods: carbonyl reducing enzymes (AKR1A, AKR1C, CBR1 [45], NQO1 [46]), UDP-glucuronosyltransferase (UGT [47]), sulfotransferase (SULT [48]), and cytosolic glutathione-S-transferase (GST [49]).
(§3) Sesquiterpenes CNER, TNER and FAR, non-volatile liquids, were pipetted, and proper concentration was calculated according to density. All compounds were dissolved in DMSO. The final solvent concentration in the inhibition assays was 1%, which had no effect on the enzyme activity (data not shown). Non-enzymatic interference of sesquiterpenes with some compounds in the reaction mixtures (e.g., fluorescence enhancing or quenching) was considered and excluded. All experiments were performed in three replicates, if not stated otherwise.
(§4) CNER, TNER and FAR at a fixed concentration of 100 µM were screened for inhibition of cytosolic AKR1A1, AKR1C, CBR1, NQO1, SULT, and GST, and microsomal CYPs and UGT. The degree of inhibition caused by sesquiterpenes was compared with non-inhibited control reactions, which contained solvent without sesquiterpenes.

CYP1A2 = target: T1, CYP1A2 (Homo sapiens, UniProt P05177); assay: CYP1A2 (EROD activity, 7-ethoxyresorufin O-deethylation) in human liver microsomes; conditions: for Specific Activity, CYP1A2 (EROD activity): in the presence of 100 µM sesquiterpene, control 1.88 ± 0.19; for inhibition at 5 µM: liver microsomes, probe 7-ethoxyresorufin, human, 5 µM inhibitor
T1 construct: Frozen liver (both rat and human) was thawed; from tissue; host or cells: human liver microsomal fraction
T1 sequence (P05177 1-516): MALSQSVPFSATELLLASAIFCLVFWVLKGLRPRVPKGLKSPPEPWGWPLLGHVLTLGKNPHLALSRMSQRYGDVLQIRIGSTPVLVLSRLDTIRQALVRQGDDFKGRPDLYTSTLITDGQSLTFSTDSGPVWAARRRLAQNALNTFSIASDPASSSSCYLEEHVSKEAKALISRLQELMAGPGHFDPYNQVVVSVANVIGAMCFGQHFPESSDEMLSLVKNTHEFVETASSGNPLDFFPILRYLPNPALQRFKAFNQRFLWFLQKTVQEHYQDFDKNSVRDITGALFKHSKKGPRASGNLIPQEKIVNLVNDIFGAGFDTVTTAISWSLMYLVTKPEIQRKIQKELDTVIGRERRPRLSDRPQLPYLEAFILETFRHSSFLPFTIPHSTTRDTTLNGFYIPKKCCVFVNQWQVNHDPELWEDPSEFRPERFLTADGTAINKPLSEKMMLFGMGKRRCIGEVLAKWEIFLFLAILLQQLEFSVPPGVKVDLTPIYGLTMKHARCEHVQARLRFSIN
Description: as §1
Enzyme activities of individual CYP forms were measured according to established protocols. The following microsomal CYP activities were tested: CYP2A6, coumarin 7-hydroxylation; CYP2B6, 7-ethoxy-4-(trifluoromethyl)coumarin 7-deethylation, CYP2C9, diclofenac 4′-hydroxylation, CYP2C19 assay, S-mephenytoin 4′-hydroxylation, CYP2D6 on bufuralol 1′-hydroxylation, CYP2E1, chlorzoxazone 6-hydroxylation and CYP3A4, testosterone 6β-hydroxylation, and midazolam 1′-hydroxylation. Activities were measured using the Prominence HPLC system (Shimadzu, Kyoto, Japan), equipped with a LiChroCART 250-4 LiChrospher 100 RP-18 column or Chromolith®HighResolution RP-18 end-capped column (Merck, Darmstadt, Germany) and UV or fluorescence detection, according to the cited literature. Further incubation details are described either in the corresponding references, as well as in the papers from this laboratory e.g., [42, 43, 44]. CYP1A2, 7-ethoxyresorufin O-deethylation, and CYP3A4/2B6 (human), CYP2B1 (rat), benzyloxyresorufin O-debenzylation were measured using the microplate reader Tecan Infinite M200 (Tecan Group; Mannedorf, Switzerland).
Sesquiterpenes CNER, TNER and FAR, non-volatile liquids, were pipetted, and proper concentration was calculated according to density. All compounds were dissolved in DMSO. […] All experiments were performed in three replicates, if not stated otherwise.
as §4
The concentration of sesquiterpenes required for 50% inhibition of enzyme activity, the IC50 value, was determined. […] The IC50 values for each sesquiterpene were determined by plotting sigmoidal dose response curves of specific enzyme activity vs. logarithm of sesquiterpene concentration using GraphPad Prism version 6.07 for Windows (GraphPad Software Inc., La Jolla, CA, USA).
The kinetic inactivation study of the CYP1A2 (EROD activity) and CYP2B/3A (BROD activity), both in rat and human, with TNER, was performed to find out the mechanism of enzyme inhibition by this sesquiterpene. Mechanism of EROD and BROD inhibition was tested at the final ethoxyresorufin or benzyloxyresorufin concentrations 0.5–5.0 µM. The concentration of TNER was 5.0 µM.
Experimental data were fitted to the Michaelis-Menten equation, basic kinetic parameters were determined using the program GraphPad Prism version 6.07 for Windows. The type of inhibition was estimated using a Lineweaver-Burk (double-reciprocal) plot.

AKR1A = target: T2, AKR1A (Homo sapiens, UniProt P14550); assay: AKR1A activity in human liver subcellular fraction; conditions: 100 µM sesquiterpene, control 8.45 ± 0.90
T2 construct: Frozen liver (both rat and human) was thawed; from tissue; host or cells: human liver cytosolic fraction
T2 sequence (P14550 1-325): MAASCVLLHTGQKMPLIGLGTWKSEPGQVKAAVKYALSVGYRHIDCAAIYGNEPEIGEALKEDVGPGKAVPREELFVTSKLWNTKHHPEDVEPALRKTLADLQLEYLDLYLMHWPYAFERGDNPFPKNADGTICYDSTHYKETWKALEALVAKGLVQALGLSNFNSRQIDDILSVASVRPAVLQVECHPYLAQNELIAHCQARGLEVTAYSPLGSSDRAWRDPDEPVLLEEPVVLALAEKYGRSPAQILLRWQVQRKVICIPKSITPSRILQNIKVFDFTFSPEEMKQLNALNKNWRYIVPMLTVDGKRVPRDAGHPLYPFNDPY
Description: as §1, §2, §3, §4

NQO1 = target: T3, NQO1 (Homo sapiens, UniProt P15559); assay: NQO1 activity in human liver subcellular fraction; conditions: 100 µM sesquiterpene, control 6.38 ± 0.34
T3 construct: Frozen liver (both rat and human) was thawed; from tissue; host or cells: human liver cytosolic fraction
Description: as §1, §2, §3, §4

UGT = UGT activity in rat liver subcellular fraction; conditions: 100 µM sesquiterpene, control 16.2 ± 0.98
Description: as §1, §2, §3, §4

AKR1C = AKR1C activity in human liver subcellular fraction; conditions: 100 µM sesquiterpene, control 23.5 ± 2.4
Description: as §1, §2, §3, §4

T3 sequence (P15559 whole entry): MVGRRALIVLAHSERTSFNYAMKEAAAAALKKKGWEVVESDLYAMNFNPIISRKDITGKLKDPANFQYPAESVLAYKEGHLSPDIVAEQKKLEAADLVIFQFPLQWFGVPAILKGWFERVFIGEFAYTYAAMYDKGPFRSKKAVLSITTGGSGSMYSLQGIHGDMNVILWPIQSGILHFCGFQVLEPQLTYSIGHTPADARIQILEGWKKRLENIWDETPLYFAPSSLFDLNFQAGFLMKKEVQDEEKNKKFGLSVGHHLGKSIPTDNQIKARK

Row | SMILES | Specific activity, GST (GST) [nmol/mg/min] | IC50 (CYP1A2; human liver microsomes) [nM] | Specific Activity, CYP1A2 (EROD activity) (CYP1A2; human liver microsomes) [pmol/mg/min] | inhibition at 5 µM (CYP1A2) [%] | Specific activity, AKR1A (AKR1A) [nmol/mg/min] | Specific activity, NQO1 (NQO1) [nmol/mg/min] | Specific activity, UGT (UGT) [nmol/mg/min] | Specific activity, AKR1C (AKR1C) [nmol/mg/min] | Ki (CYP1A2; human liver microsomes, EROD activity) [nM] | type of inhibition, CYP1A2 (EROD) (CYP1A2; human microsomes, 5 µM TNER, ethoxyresorufin 0.5–5.0 µM)
1 | CC(C)=CCC/C(C)=C/CC/C(C)=C/CO [FAR, farnesol] | 181 ± 13 | 1830 | 0.083 ± 0.005 | 77 | 7.62 ± 0.30 | 5.23 ± 1.03 | 14.3 ± 3.15 | 24.0 ± 1.5 |  | 
2 | C=CC(C)(O)CC/C=C(\C)CCC=C(C)C (stereo not drawn) [TNER, trans-nerolidol] | 235 ± 13 | 8690 | 0.287 ± 0.013 | 38 | 6.75 ± 0.22 | 5.53 ± 0.51 | 16.4 ± 2.46 | 21.4 ± 1.0 | 920 ± 520 | competitively
3 | C=CC(C)(O)CC/C=C(/C)CCC=C(C)C (stereo not drawn) [CNER, cis-nerolidol] | 209 ± 10 | 2490 | 0.163 ± 0.005 | 50 | 6.88 ± 0.29 | 5.44 ± 0.82 | 15.9 ± 1.11 | 22.7 ± 1.5 |  | 
